Laboratory results taken from ChEMBL document CHEMBL1201862, “PubChem BioAssay data set” (2004).
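Test compounds were applied to cells in 96-well plates for 48 hours at 5 doses. At the GI50, growth is halved.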 Activity calls are given as the source filed them. No stated cut-off is given here; in the data, active = GI50 up to about 1.1 µM and inactive = higher.

How the values were obtained:
Experiment in all cases: NCI tumour cell line growth inhibition, 48 h
MDA-MB-435 = tested on: MDA-MB-435
NCI-H226 = tested on: NCI-H226
UO-31 = tested on: UO-31
A498 = tested on: A498
EKVX = tested on: EKVX
HOP-62 = tested on: HOP-62
SK-OV-3 = tested on: SK-OV-3
U-251 = tested on: U-251
OVCAR-3 = tested on: OVCAR-3
Malme-3M = tested on: Malme-3M
IGROV-1 = tested on: IGROV-1
SNB-75 = tested on: SNB-75
HOP-92 = tested on: HOP-92
CAKI-1 = tested on: CAKI-1
SF-539 = tested on: SF-539
ACHN = tested on: ACHN
OVCAR-5 = tested on: OVCAR-5
NCI-H460 = tested on: NCI-H460
SK-MEL-2 = tested on: SK-MEL-2
NCI-H23 = tested on: NCI-H23
SW-620 = tested on: SW-620
MDA-MB-231 = tested on: MDA-MB-231
SF-295 = tested on: SF-295
DU-145 = tested on: DU-145
HCT-15 = tested on: HCT-15
LOX IMVI = tested on: LOX IMVI
BT-549 = tested on: BT-549
Hs-578T = tested on: Hs-578T
PC-3 = tested on: PC-3
UACC-62 = tested on: UACC-62
TK-10 = tested on: TK-10
K562 = tested on: K562
RXF 393 = tested on: RXF 393
SK-MEL-5 = tested on: SK-MEL-5
T47D = tested on: T47D
HT-29 = tested on: HT-29
SN12C = tested on: SN12C
MCF7 = tested on: MCF7
KM12 = tested on: KM12
NCI/ADR-RES = tested on: NCI/ADR-RES
OVCAR-8 = tested on: OVCAR-8
COLO 205 = tested on: COLO 205
NCI-H522 = tested on: NCI-H522
HCC 2998 = tested on: HCC 2998
SK-MEL-28 = tested on: SK-MEL-28
HCT-116 = tested on: HCT-116
CCRF-CEM = tested on: CCRF-CEM
M14 = tested on: M14
UACC-257 = tested on: UACC-257
SNB-19 = tested on: SNB-19
RPMI-8226 = tested on: RPMI-8226
OVCAR-4 = tested on: OVCAR-4
SR = tested on: SR
MDA-N = tested on: MDA-N
A549 = tested on: A549
MOLT-4 = tested on: MOLT-4
786-0 = tested on: 786-0
SF-268 = tested on: SF-268
HL-60 = tested on: HL-60

For `O=c1cc(/C=C/c2ccc(O)c(O)c2)cc(/C=C/c2ccc(O)c(O)c2)o1`, the GI50 (MDA-MB-435) was 12.9 µM (inactive), the GI50 (NCI-H226) was 14.9 µM (inactive) and the GI50 (UO-31) was 4.22 µM (inactive). The GI50 (A498) was 11 µM (inactive), the GI50 (EKVX) was 8.11 µM (inactive) and the GI50 (HOP-62) was 10.5 µM (inactive). For the same compound, the GI50 (SK-OV-3) was 11.5 µM (inactive), the GI50 (U-251) was 6.95 µM (inactive) and the GI50 (OVCAR-3) was 7.71 µM (inactive). For the same compound, the GI50 (Malme-3M) was 5.82 µM (inactive), the GI50 (IGROV-1) was 12.9 µM (inactive) and the GI50 (SNB-75) was 10.5 µM (inactive). The GI50 (HOP-92) was 15.2 µM (inactive), the GI50 (CAKI-1) was 10.9 µM (inactive) and the GI50 (SF-539) was 8.15 µM (inactive). For the same compound, the GI50 (ACHN) was 5.85 µM (inactive), the GI50 (OVCAR-5) was 12.2 µM (inactive) and the GI50 (NCI-H460) was 14.3 µM (inactive). For the same compound, the GI50 (SK-MEL-2) was 11.6 µM (inactive), the GI50 (NCI-H23) was 14.9 µM (inactive) and the GI50 (SW-620) was 13.6 µM (inactive). For the same compound, the GI50 (MDA-MB-231) was 11.5 µM (inactive), the GI50 (SF-295) was 9.44 µM (inactive) and the GI50 (DU-145) was 9.23 µM (inactive). The GI50 (HCT-15) was 10.4 µM, the GI50 (LOX IMVI) was 15.7 µM (inactive) and the GI50 (BT-549) was 13.9 µM (inactive). For the same compound, the GI50 (Hs-578T) was 8.05 µM (inactive), the GI50 (PC-3) was 9.16 µM (inactive) and the GI50 (UACC-62) was 8.39 µM (inactive). For the same compound, the GI50 (TK-10) was 17.5 µM (inactive), the GI50 (K562) was 2.9 µM (inactive) and the GI50 (RXF 393) was 6.71 µM (inactive). The GI50 (SK-MEL-5) was 8.59 µM (inactive), the GI50 (T47D) was 8.79 µM (inactive) and the GI50 (HT-29) was 11.4 µM (inactive). The GI50 (SN12C) was 9.71 µM (inactive), the GI50 (MCF7) was 4.05 µM (inactive) and the GI50 (KM12) was 8.43 µM (inactive). The GI50 (NCI/ADR-RES) was 32.9 µM (inactive), the GI50 (OVCAR-8) was 18.6 µM (inactive) and the GI50 (COLO 205) was 12.1 µM (inactive). For the same compound, the GI50 (NCI-H522) was 1.68 µM (inactive), the GI50 (HCC 2998) was 6.68 µM (inactive) and the GI50 (SK-MEL-28) was 16.4 µM (inactive). The GI50 (HCT-116) was 8.17 µM (inactive), the GI50 (CCRF-CEM) was 7.66 µM (inactive) and the GI50 (M14) was 10.5 µM (inactive). The GI50 (UACC-257) was 12.5 µM (inactive), the GI50 (SNB-19) was 8.28 µM (inactive) and the GI50 (RPMI-8226) was 5.02 µM (inactive). The GI50 (OVCAR-4) was 14.3 µM (inactive), the GI50 (SR) was 1.24 µM (inactive) and the GI50 (MDA-N) was 11.6 µM (inactive). For the same compound, the GI50 (A549) was 12.8 µM (inactive), the GI50 (MOLT-4) was 1.92 µM (inactive) and the GI50 (786-0) was 14.3 µM (inactive). For the same compound, the GI50 (SF-268) was 5.86 µM (inactive).
`COC(=O)C1(C(=O)OC)Cc2ccc(OC)cc2C2=C1C(=O)c1ccccc1C2=O` was tested, and the GI50 (MDA-MB-435) was 1.97 µM (inactive), the GI50 (NCI-H226) was 17.7 µM (inactive) and the GI50 (UO-31) was 3.69 µM (inactive). The GI50 (A498) was 18.3 µM (inactive), the GI50 (EKVX) was 4.46 µM (inactive) and the GI50 (HOP-62) was 7.08 µM (inactive). For the same compound, the GI50 (U-251) was 5.56 µM (inactive), the GI50 (OVCAR-3) was 0.282 µM (active) and the GI50 (Malme-3M) was 10.8 µM (inactive). For the same compound, the GI50 (IGROV-1) was 2.77 µM (inactive), the GI50 (SNB-75) was 17.7 µM (inactive) and the GI50 (HOP-92) was 2.69 µM (inactive). The GI50 (CAKI-1) was 0.423 µM (active), the GI50 (SF-539) was 16.6 µM (inactive) and the GI50 (ACHN) was 5.74 µM (inactive). The GI50 (OVCAR-5) was 6.01 µM (inactive), the GI50 (NCI-H460) was 16.1 µM (inactive) and the GI50 (SK-MEL-2) was 5.7 µM (inactive). The GI50 (NCI-H23) was 6.62 µM (inactive), the GI50 (SW-620) was 6.47 µM (inactive) and the GI50 (MDA-MB-231) was 1.99 µM (inactive). The GI50 (SF-295) was 3.77 µM (inactive), the GI50 (DU-145) was 16.5 µM (inactive) and the GI50 (HCT-15) was 10.7 µM. For the same compound, the GI50 (LOX IMVI) was 2.17 µM (inactive), the GI50 (BT-549) was 19.1 µM (inactive) and the GI50 (Hs-578T) was 8.93 µM (inactive). For the same compound, the GI50 (PC-3) was 1.87 µM (inactive), the GI50 (UACC-62) was 1.85 µM (inactive) and the GI50 (TK-10) was 18.4 µM (inactive). For the same compound, the GI50 (K562) was 1.84 µM (inactive), the GI50 (SK-MEL-5) was 7.4 µM (inactive) and the GI50 (T47D) was 1.51 µM (inactive). For the same compound, the GI50 (HT-29) was 14.4 µM (inactive), the GI50 (SN12C) was 4.42 µM (inactive) and the GI50 (MCF7) was 2.55 µM (inactive). The GI50 (KM12) was 6.85 µM (inactive), the GI50 (NCI/ADR-RES) was 2.69 µM (inactive) and the GI50 (OVCAR-8) was 2.4 µM (inactive). The GI50 (COLO 205) was 20.3 µM (inactive), the GI50 (NCI-H522) was 3.45 µM (inactive) and the GI50 (HCC 2998) was 19.5 µM (inactive). For the same compound, the GI50 (HL-60) was 2.24 µM (inactive), the GI50 (SK-MEL-28) was 17.1 µM (inactive) and the GI50 (HCT-116) was 3.24 µM (inactive). The GI50 (CCRF-CEM) was 2.15 µM (inactive), the GI50 (M14) was 18.4 µM (inactive) and the GI50 (UACC-257) was 2.48 µM (inactive). The GI50 (SNB-19) was 16.9 µM (inactive), the GI50 (OVCAR-4) was 1.77 µM (inactive) and the GI50 (SR) was 3.54 µM (inactive). For the same compound, the GI50 (MDA-N) was 1.83 µM (inactive), the GI50 (A549) was 14.9 µM (inactive) and the GI50 (MOLT-4) was 1.53 µM (inactive). For the same compound, the GI50 (786-0) was 4.75 µM (inactive) and the GI50 (SF-268) was 6.67 µM (inactive).
